Laboratory results as given in patent EP1801112A1, “Bicyclic pyrimidines and bicyclic 3,4-dihydropyrimidines as inhibitors of cellular proliferation” (Warner-Lambert Company LLC, priority 1998, dated 1999).
pIC50: −log10 of the molar value. Read-outs that look alike come from different tables or passages of the source.

How the values were obtained:
cdk4/D = cdk4/D (Homo sapiens, UniProt P11802); assay: Cyclin-Dependent Kinase 4 (cdk4) Assay; assay type: biochemical; details: for IC50: 25 µM ATP, retinoblastoma substrate, read-out: IC50 (µM) cdk4/D
cdk4/D, sequence (P11802 whole entry): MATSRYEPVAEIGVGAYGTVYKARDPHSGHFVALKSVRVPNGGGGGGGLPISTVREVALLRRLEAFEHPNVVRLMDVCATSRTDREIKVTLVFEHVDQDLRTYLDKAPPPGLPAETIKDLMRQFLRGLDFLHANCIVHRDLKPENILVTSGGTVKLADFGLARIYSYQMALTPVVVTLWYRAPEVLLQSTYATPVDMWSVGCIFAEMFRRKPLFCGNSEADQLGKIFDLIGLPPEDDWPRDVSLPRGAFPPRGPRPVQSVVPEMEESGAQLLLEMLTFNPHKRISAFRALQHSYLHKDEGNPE
cdk4/D, sequence (P24385 whole entry, further chain): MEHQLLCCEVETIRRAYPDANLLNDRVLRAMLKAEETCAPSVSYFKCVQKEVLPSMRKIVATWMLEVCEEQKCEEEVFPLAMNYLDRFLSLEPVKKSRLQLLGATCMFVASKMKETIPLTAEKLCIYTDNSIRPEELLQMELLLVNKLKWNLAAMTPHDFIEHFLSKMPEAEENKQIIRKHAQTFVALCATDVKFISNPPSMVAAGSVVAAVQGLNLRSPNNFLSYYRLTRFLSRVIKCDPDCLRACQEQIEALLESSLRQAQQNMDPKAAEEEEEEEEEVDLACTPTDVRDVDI
Protocol: A typical assay, for instance, measures inhibitory activity against the cyclin D dependent kinase 4 enzyme (cdk4/D). […] The cdk4 assay was carried out as follows.
Cyclin-Dependent Kinase 4 (cdk4) Assay
Enzyme assays for IC50 determinations (Tables 1 and 2) and kinetic evaluation were performed in 96 well filter plates (Millipore MADVN6550). The total volume was 0.1 mL containing a final concentration of 20 mM TRIS (tris[hydroxymethyl]aminomethane), at pH 7.4, 50 mM NaCl, 1 mM dithiothreitol, 10 mM MgCl2, 25 µM ATP containing 0.25 µCi of [^32P]ATP, 20 ng of cdk4, 1 µg of retinoblastoma, and appropriate dilutions of a compound of the present invention. All components except the ATP were added to the wells, and the plate was placed on a plate mixer for 2 minutes. The reaction was started by adding [^32P]ATP and the plate was incubated at 25°C for 15 minutes. The reaction was terminated by addition of 0.1 mL of 20% trichloroacetic acid (TCA). The plate was kept at 4°C for at least 1 hour to allow the substrate to precipitate. The wells were then washed five times with 0.2 mL of 10% TCA and ^32P incorporation was determined with a beta plate counter (Wallac Inc., Gaithersburg, MD).

[1] = target: T1, FGF-1 (flg) receptor tyrosine kinase (Homo sapiens, UniProt P11362); assay: FGF Receptor Tyrosine Kinase Assay; assay type: biochemical; details: glutamate-tyrosine co-polymer substrate, 50 µM ATP
T1 construct: amplify a fragment of DNA that codes for the intracellular tyrosine kinase domain; made in house; host or cells: SF9 insect cells (baculovirus); crude cell lysate used
T1 sequence (P11362 478-767 limits assumed): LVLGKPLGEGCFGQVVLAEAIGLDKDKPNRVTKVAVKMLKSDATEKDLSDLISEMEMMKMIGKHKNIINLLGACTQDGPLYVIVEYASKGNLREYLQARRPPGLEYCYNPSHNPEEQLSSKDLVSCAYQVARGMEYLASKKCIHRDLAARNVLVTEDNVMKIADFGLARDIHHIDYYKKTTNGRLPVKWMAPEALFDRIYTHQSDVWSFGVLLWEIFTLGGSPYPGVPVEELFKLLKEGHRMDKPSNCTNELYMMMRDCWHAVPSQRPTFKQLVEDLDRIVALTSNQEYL
Protocol: PDGF and FGF Receptor Tyrosine Kinase Assays
PCR primers were designed to amplify a fragment of DNA that codes for the intracellular tyrosine kinase domain. The fragment was inserted into a baculovirus vector, cotransfected with AcMNPV DNA, and the recombinant virus isolated. SF9 insect cells were infected with the virus to overexpress the protein, and the cell lysate was used for the assay. Assays were performed in 96-well plates (100 µL/incubation/well), and conditions were optimized to measure the incorporation of ^32P from γ^32P-ATP into a glutamate-tyrosine co-polymer substrate. Briefly, to each well was added 82.5 µL of incubation buffer containing 25 mM Hepes (pH 7.0), 150 mM NaCl, 0.1% Triton X-100, 0.2 mM PMSF, 0.2 mM Na3VO4, 10 mM MnCl2, and 750 µg/mL of Poly (4:1) glutamate-tyrosine followed by 2.5 µL of inhibitor and 5 µL of enzyme lysate (7.5 µg/µL FGF-TK or 6.0 µg/µL PDGF-TK) to initiate the reaction. […] The reaction was terminated by the addition of 100 µL of 30% trichloroacetic acid (TCA) containing 20 mM sodium pyrophosphate and precipitation of material onto glass fiber mats (Wallac). […] Nonspecific activity was defined as radioactivity retained on the filters following incubation of samples with buffer alone (no enzyme). Specific enzymatic activity (enzyme plus buffer) was defined as total activity minus nonspecific activity. […]

c-Src = target: T2, c-Src (Homo sapiens, UniProt P12931); assay: c-Src protein kinase assay; assay type: biochemical; details: poly GluTyr substrate, 5 µM ATP
T2 construct: made in house; host or cells: baculovirus infected insect cells
T2 sequence (P12931 whole entry): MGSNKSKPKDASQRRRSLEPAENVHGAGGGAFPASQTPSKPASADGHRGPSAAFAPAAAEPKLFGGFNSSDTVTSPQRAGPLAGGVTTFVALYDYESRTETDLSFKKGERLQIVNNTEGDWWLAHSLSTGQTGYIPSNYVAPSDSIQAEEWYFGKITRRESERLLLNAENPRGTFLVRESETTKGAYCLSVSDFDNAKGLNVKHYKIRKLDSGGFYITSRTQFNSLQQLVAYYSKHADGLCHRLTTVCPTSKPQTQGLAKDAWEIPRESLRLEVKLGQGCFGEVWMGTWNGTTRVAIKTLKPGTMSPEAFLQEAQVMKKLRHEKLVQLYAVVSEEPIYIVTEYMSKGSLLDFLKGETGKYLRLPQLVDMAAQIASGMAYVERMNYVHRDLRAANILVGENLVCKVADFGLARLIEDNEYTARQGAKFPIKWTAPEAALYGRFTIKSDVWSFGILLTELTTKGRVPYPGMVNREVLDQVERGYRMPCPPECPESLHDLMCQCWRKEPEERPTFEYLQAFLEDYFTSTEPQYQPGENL
Protocol: The assay was carried out as follows: c-Src kinase was purified from baculovirus infected insect cell lysates using an antipeptide monoclonal antibody directed against the N-terminal amino acids (amino acids 2-17) of c-Src. The antibody, covalently linked to 0.65 µm latex beads, was added to a suspension of insect cell lysis buffer comprised of 150 mM NaCl, 50 mM Tris pH 7.5, 1 mM DTT, 1% NP-40, 2 mM EGTA, 1 mM sodium vanadate, 1 mM PMSF, 1 µg/mL each of leupeptin, pepstatin, and aprotinin. Insect cell lysate containing c-Src protein was incubated with these beads for 3 to 4 hours at 4°C with rotation. At the end of the lysate incubation, the beads were rinsed three times in lysis buffer, resuspended in lysis buffer containing 10% glycerol, and frozen. These latex beads were thawed, rinsed three times in assay buffer (40 mM Tris, pH 7.5, […]) and suspended in the same buffer. In a Millipore 96-well plate with a 0.65 µm polyvinylidine membrane bottom were added the reaction components: 10 µL c-Src beads, 10 µL of 2.5 mg/mL poly GluTyr substrate, 5 µM ATP containing 0.2 µCi labeled ^32P-ATP, 5 µL DMSO containing inhibitors or as a solvent control, and buffer to make the final volume 125 µL. The reaction was started at room temperature by addition of the ATP and quenched 10 minutes later by the addition of 125 µL of 30% TCA, 0.1 M sodium pyrophosphate for 5 minutes on ice. […] The filters were then punched, counted in a liquid scintillation counter, and the data examined for inhibitory activity in comparison to a known inhibitor such as erbstatin. […]

cdk2/cyclinA = cdk2/cyclinA (Homo sapiens, UniProt P24941); assay: Cyclin-Dependent Kinase Assay cdk2/cyclinA; assay type: biochemical
Protocol: (§1) Cyclin-Dependent Kinase Assays (cdk2/cyclinE, cdk2/cyclinA, cdc2/cyclinB)
(§2) All components except the ATP were added to the wells, and the plate was placed on a plate mixer for 2 minutes. The reaction was begun by addition of [^32P]ATP, and the plate was incubated at 25°C for 15 minutes. The reaction was terminated by addition of 0.1 mL of 20% TCA. The plate was kept at 4°C for at least 1 hour to allow the substrate to precipitate. The wells were then washed five times with 0.2 mL of 10% TCA and ^32P incorporation determined with a beta plate counter (Wallac Inc., Gaithersburg, MD).

cdc2/cyclinB = cdc2/cyclinB (Homo sapiens, UniProt P06493); assay: Cyclin-Dependent Kinase Assay cdc2/cyclinB; assay type: biochemical
cdc2/cyclinB, sequence (P06493 whole entry): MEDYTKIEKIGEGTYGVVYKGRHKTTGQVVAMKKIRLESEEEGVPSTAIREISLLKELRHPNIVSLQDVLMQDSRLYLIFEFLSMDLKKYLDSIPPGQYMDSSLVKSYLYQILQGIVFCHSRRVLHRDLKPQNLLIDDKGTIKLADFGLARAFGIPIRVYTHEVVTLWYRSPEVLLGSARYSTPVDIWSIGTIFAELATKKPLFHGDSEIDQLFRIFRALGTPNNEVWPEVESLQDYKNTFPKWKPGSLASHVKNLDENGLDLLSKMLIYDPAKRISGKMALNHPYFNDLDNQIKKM
cdc2/cyclinB, sequence (P14635 whole entry, further chain): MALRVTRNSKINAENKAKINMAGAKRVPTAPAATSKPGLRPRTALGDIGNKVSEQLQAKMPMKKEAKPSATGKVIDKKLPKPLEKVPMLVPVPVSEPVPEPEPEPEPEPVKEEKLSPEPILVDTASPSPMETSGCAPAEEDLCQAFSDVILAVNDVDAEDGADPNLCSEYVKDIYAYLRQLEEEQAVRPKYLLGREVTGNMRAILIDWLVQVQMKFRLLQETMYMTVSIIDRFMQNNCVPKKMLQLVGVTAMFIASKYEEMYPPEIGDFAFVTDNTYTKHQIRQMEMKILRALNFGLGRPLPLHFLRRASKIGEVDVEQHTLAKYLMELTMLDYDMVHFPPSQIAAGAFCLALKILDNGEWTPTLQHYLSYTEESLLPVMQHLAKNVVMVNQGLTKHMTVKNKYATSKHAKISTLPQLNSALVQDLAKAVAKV
Protocol: as §1, §2

cdk2/cyclinE = cdk2/cyclinE (Homo sapiens, UniProt P24941); assay: Cyclin-Dependent Kinase Assay cdk2/cyclinE; assay type: biochemical
Protocol: as §1, §2

[2] = test system: human umbilical vein endothelial cells; assay: Human Umbilical Vein Endothelial Cell (HUVEC) Proliferation Assay; assay type: cell-based; details: 96 h, four days incubation, Sulphorhodamine B staining
Protocol: The compounds of Formula I are useful for treating cell proliferative disorders concerning angiogenesis and have been evaluated in a human umbilical vein endothelial cell in vitro assay. The assay described below is used to determine the anti-proliferative effects of the invention compounds on human umbilical vein endothelial cells, and the results are shown in Table 7.
Human Umbilical Vein Endothelial Cell (HUVEC) Proliferation Assay
Ninety-six well tissue culture plates are seeded with 100 µL of cells in all wells of rows A->G with row H remaining empty as a blank. HUVEC (Clonetics, San Diego, CA) are grown in endothelial growth medium (EGM media, Clonetics), containing 2% fetal bovine serum. The cell seed density for HUVEC cells is 20,000 per mL. C6 cells (ATCC Cat. No. CCL-107) are seeded at 6000 per mL in F10 medium (nutrient mixture Hemes) supplemented with 15% horse serum, 2.5% fetal bovine serum, and 6.0 mL 200 mM Glutamine per 600 mL medium. A90 cells (Suny, Buffalo, NY) are also seeded at 6000 per mL, but they are grown in RPMI 1640 (Roswell Park Memorial Institute) plus 10% fetal bovine serum. Unless noted otherwise, tissue culture media and components are from GIBCO. The cells are allowed to incubate at 37°C, 5% CO2, and 100% relative humidity for 16-24 hours.
Invention compounds are prepared by dissolving them in DMSO at a concentration of 5 mM, followed by dilution to 50 µM in EGM media. One hundred microliters of the compounds are applied to duplicate wells in column 1 of the previously prepared cell plates. Column 1 row H receives 100 µL of EGM media. The compounds in column 1 are diluted across the plates using serial twofold dilutions.
The plates are incubated as above for an additional four days before being stained with Sulphorhodamine B. Staining is performed as follows: The media is removed from the plates, and the cells are fixed using 10% trichloroacetic acid for 30 minutes at 4°C. Following fixation, the plates are washed five times with distilled water after which 100 µL of Sulphorhodamine B is added to each well. Sulphorhodamine B is dissolved in 1% acetic acid to a concentration of .075%. Following staining, excess stain is removed from the wells, and the plates are washed four times with 1% acetic acid. The plates are allowed to air dry before the bound dye is solubilized in 100 µL of 10 mM unbuffered TRIS base. Absorbance is measured on a 96 well plate reader at […] using a reference filter wavelength of 630 nm. […] Sulphorhodamine B and TRIS are from Sigma Chemical Company. Acetic acid and trichloroacetic acid are from Mallinckrodt AR.

Question: Which results are given for O=C1NCc2cnc(Nc3ccc(N4CCCCC4)cc3)nc2N1C1CCCC1 [Example 10, 1-Cyclopentyl-7-[4-(piperidin-1-yl)phenylamino]-3,4-dihydropyrimido[4,5-d]pyrimidin-2(1H)-one]?
Answer: IC50 (cdk4/D): 1.55 µM; IC50 [1]: 0.64 µM; pIC50 (c-Src): < 4.30

Question: How did the pIC50 (cdk4/D) turn out when O=C1NCc2cnc(Nc3ccc(-n4cccc4)cc3)nc2N1C1CCCC1 [Example 14, 1-Cyclopentyl-7-[4-(pyrrol-1-yl)phenylamino]-3,4-dihydropyrimido[4,5-d]pyrimidin-2(1H)-one] was run?
Answer: 4.75

Question: What about the pIC50 (cdk2/cyclinA) of the same molecule?
Answer: 5.29

Question: What about the pIC50 (cdc2/cyclinB) of the same molecule?
Answer: < 4.70

Question: What about the pIC50 (c-Src) of the same molecule?
Answer: < 4.30

Question: What does the source list for O=C1NCc2cnc(Nc3ccc(N4CCC(O)CC4)cc3)nc2N1C1CCCC1 [Example 15, 1-Cyclopentyl-7-[4-(4-hydroxypiperidin-1-yl)phenylamino]-3,4-dihydropyrimido[4,5-d]pyrimidin-2(1H)-one]?
Answer: IC50 (cdk4/D): 0.7 µM; IC50 (cdk2/cyclinE; retinoblastoma substrate, read-out: IC50 (µM) cdk2/E): 2.2 µM; IC50 (cdk2/cyclinA; retinoblastoma substrate, read-out: IC50 (µM) cdk2/A): 0.6 µM; IC50 (cdc2/cyclinB; retinoblastoma substrate, read-out: IC50 (µM) cdkl/B): 16.8 µM; IC50 [1]: 0.05 to 0.5 µM; pIC50 (c-Src): 5.62

Question: What does the source list for O=C1NCc2cnc(Nc3ccc(N4CCCCC4CO)cc3)nc2N1C1CCCC1 (stereo not shown) [Example 19, 1-Cyclopentyl-7-[4-(2-hydroxymethylpiperidin-1-yl)phenylamino]-3,4-dihydro-pyrimido[4,5-d]pyrimidin-2(1H)-one]?
Answer: pIC50 (cdk4/D): 6.30; IC50 [1]: 0.05 to 0.5 µM; pIC50 (c-Src): 5.35

Question: How did the pIC50 (cdk4/D) turn out when CC(C)N1C(=O)NCc2cnc(Nc3ccc(N4CCN(C)CC4)cc3)nc21 [Example 22, 1-Isopropyl-7-[4-(4-methylpiperazin-1-yl)phenylamino]-3,4-dihydropyrimido[4,5-d]pyrimidin-2(1H)-one] was run?
Answer: 6.47

Question: And the pIC50 (cdk2/cyclinA)?
Answer: 5.03

Question: And the pIC50 (c-Src)?
Answer: 5.82

Question: With CC(C)n1c(=O)ncc2cnc(Nc3ccc(N4CCN(C)CC4)cc3)nc21 [Example 40, 1-Isopropyl-7-[4-(4-methylpiperazin-1-yl)phenylamino]pyrimido[4,5-d]pyrimidin-2(1H)-one] as the molecule, how does the pIC50 (cdk2/cyclinE) read?
Answer: 4.78

Question: And the pIC50 (cdk2/cyclinA)?
Answer: 5.35

Question: And the IC50 [1]?
Answer: 1.13 µM

Question: What about the pIC50 (c-Src) of the same molecule?
Answer: 5.37

Question: CCN(CC)CCCCNc1ncc2c(n1)NC(=O)N(c1cc(OC)cc(OC)c1)C2 [Example 52, 7-(4-Diethylamino-butylamino)-3-(3,5-dimethoxy-phenyl)-3,4-dihydropyrimido[4,5-d]pyrimidin-2(1H)-one] was tested. Which pIC50 [2] did it give?
Answer: 5.18

Question: How did the pIC50 [2] turn out when COc1cc(OC)cc(N2Cc3cnc(NCCNCc4ccncc4)nc3NC2=O)c1 [Example 54, 3-(3,5-Dimethoxy-phenyl)-7-{2-[(pyridin-4-ylmethyl)-amino]-ethylamino}-3,4-dihydro-pyrimido[4,5-d]pyrimidin-2(1H)-one] was run?
Answer: < 4.60

Question: How did the pIC50 [2] turn out when COc1cc(OC)cc(N2Cc3cnc(NCCCN4CCN(C)CC4)nc3NC2=O)c1 [Example 54a, 3-(3,5-Dimethoxy-phenyl)-7-[3-(4-methyl-piperazin-1-yl)-propylamino]-3,4-dihydro-1H-pyrimido[4,5-d]pyrimidin-2(1H)-one] was run?
Answer: 5.22

Question: COc1cc(OC)cc(N2Cc3cnc(NCCCCN4CCN(C)CC4)nc3NC2=O)c1 [Example 54b, 3-(3,5-Dimethoxy-phenyl)-7-[4-(4-methyl-piperazin-1-yl)-butylamino]-3,4-dihydro-pyrimido[4,5-d]pyrimidin-2(1H)-one] was tested. Which pIC50 [2] did it give?
Answer: 5.30

Question: How did the pIC50 [2] turn out when COc1cc(OC)cc(N2Cc3cnc(NCCCCCN4CCN(C)CC4)nc3NC2=O)c1 [Example 54c, 3-(3,5-Dimethoxy-phenyl)-7-[5-(4-methyl-piperazin-1-yl)-pentylamino]-3,4-dihydro-pyrimido[4,5-d]pyrimidin-2(1H)-one] was run?
Answer: 5.24

Question: How did the pIC50 [2] turn out when CCN(CC)CCCNc1ncc2c(n1)NC(=O)N(c1cc(OC)cc(OC)c1)C2 [Example 55, 7-(3-Diethylamino-propylamino)-3-(3,5-dimethoxy-phenyl)-3,4-dihydropyrimido[4,5-d]pyrimidin-2(1H)-one] was run?
Answer: < 4.60

Question: How did the pIC50 [2] turn out when CCN1C(=O)N(c2cc(OC)cc(OC)c2)Cc2cnc(NCCNCc3ccncc3)nc21 [Example 56, 3-(3,5-Dimethoxy-phenyl)-1-ethyl-7-{2-[(pyridin-4-ylmethyl)-amino]-ethylamino}-3,4-dihydro-pyrimido[4,5-d]pyrimidin-2(1H)-one] was run?
Answer: 5.71

Question: With CCN1C(=O)N(c2cc(OC)cc(OC)c2)Cc2cnc(NCCCN3CCN(C)CC3)nc21 [Example 57, 3-(3,5-Dimethoxy-phenyl)-1-ethyl-7-[3-(4-methyl-piperazin-1-yl)-propylamino]-3,4-dihydro-pyrimido[4,5-d]pyrimidin-2(1H)-one] as the molecule, how does the pIC50 [2] read?
Answer: 6.82
